Assays:
ducksalad = assay: Test D flooded paddy test; type: in vivo, Heteranthera limosa; details: 250 g ai/ha, applied to paddy water, visual rating after 13 to 14 days, scale 0 to 100 (0 no effect, 100 complete control)
Method in brief: (§1)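 Plants at the 2-leaf stage were grown in pots flooded to 3 cm, and compound was applied directly into the paddy water, with depth kept throughout. After 13–14 days in a greenhouse, injury was rated visually against untreated controls on a 0–100 scale (100 = complete control); a dash means not tested.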

galium = assay: Test C postemergence; type: in vivo, Galium aparine; details: 10 days, 0 to 100 scale (0 no effect, 100 complete control)
Method in brief: (§2)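 Soil-applied (pre) and foliar (post, 1–2 leaf, 2–10 cm) sprays; surfactant-containing non-phytotoxic solvent vehicle; loam/sand substrate. Readout: visual % control at 10 d, greenhouse, versus untreated.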

ryegrass, Italian [1] = assay: Test C preemergence; type: in vivo, Lolium multiflorum
Method in brief: as §2

horseweed = assay: Test C postemergence; type: in vivo, Erigeron canadensis; details: 10 days, 0 to 100 scale (0 no effect, 100 complete control)
Method in brief: as §2

soybean [2] = assay: Test C preemergence; type: in vivo, Glycine max
Method in brief: as §2

pigweed, palmer [3] = assay: Test C postemergence; type: in vivo, Amaranthus palmeri; details: 10 days, 0 to 100 scale (0 no effect, 100 complete control)
Method in brief: as §2

blackgrass [4] = assay: Test C postemergence; type: in vivo, Alopecurus myosuroides; details: 10 days, 0 to 100 scale (0 no effect, 100 complete control)
Method in brief: as §2

oat, wild [5] = assay: Test C preemergence; type: in vivo, Avena fatua
Method in brief: as §2

ragweed [6] = assay: Test C postemergence; type: in vivo, Ambrosia artemisiifolia; details: 10 days, 0 to 100 scale (0 no effect, 100 complete control)
Method in brief: as §2

corn [7] = assay: Test C preemergence; type: in vivo, Zea mays
Method in brief: as §2

wheat [8] = assay: Test C postemergence; type: in vivo, Triticum aestivum; details: 10 days, 0 to 100 scale (0 no effect, 100 complete control)
Method in brief: as §2

soybean [9] = assay: Test C postemergence; type: in vivo, Glycine max; details: 10 days, 0 to 100 scale (0 no effect, 100 complete control)
Method in brief: as §2

kochia [10] = assay: Test C preemergence; type: in vivo, Bassia scoparia
Method in brief: as §2

oat, wild [11] = assay: Test C postemergence; type: in vivo, Avena fatua; details: 10 days, 0 to 100 scale (0 no effect, 100 complete control)
Method in brief: as §2

barnyardgrass [12] = assay: Test D flooded paddy test; type: in vivo, Echinochloa crus-galli; details: 250 g ai/ha, applied to paddy water, visual rating after 13 to 14 days, scale 0 to 100 (0 no effect, 100 complete control)
Method in brief: as §1

rice = assay: Test D flooded paddy test; type: in vivo, Oryza sativa; details: 250 g ai/ha, applied to paddy water, visual rating after 13 to 14 days, scale 0 to 100 (0 no effect, 100 complete control)
Method in brief: as §1

foxtail, giant [13] = assay: Test C postemergence; type: in vivo, Setaria faberi; details: 10 days, 0 to 100 scale (0 no effect, 100 complete control)
Method in brief: as §2

ragweed [14] = assay: Test C preemergence; type: in vivo, Ambrosia artemisiifolia
Method in brief: as §2

corn [15] = assay: Test C postemergence; type: in vivo, Zea mays; details: 10 days, 0 to 100 scale (0 no effect, 100 complete control)
Method in brief: as §2

foxtail, giant [16] = assay: Test C preemergence; type: in vivo, Setaria faberi
Method in brief: as §2

blackgrass [17] = assay: Test C preemergence; type: in vivo, Alopecurus myosuroides
Method in brief: as §2

barnyardgrass [18] = assay: Test C preemergence; type: in vivo, Echinochloa crusgalli
Method in brief: as §2

barnyardgrass [19] = assay: Test C postemergence; type: in vivo, Echinochloa crusgalli; details: 10 days, 0 to 100 scale (0 no effect, 100 complete control)
Method in brief: as §2

kochia [20] = assay: Test C postemergence; type: in vivo, Bassia scoparia; details: 10 days, 0 to 100 scale (0 no effect, 100 complete control)
Method in brief: as §2

pigweed, palmer [21] = assay: Test C preemergence; type: in vivo, Amaranthus palmeri
Method in brief: as §2

wheat [22] = assay: Test C preemergence; type: in vivo, Triticum aestivum
Method in brief: as §2

sedge, umbrella = assay: Test D flooded paddy test; type: in vivo, Cyperus difformis; details: 250 g ai/ha, applied to paddy water, visual rating after 13 to 14 days, scale 0 to 100 (0 no effect, 100 complete control)
Method in brief: as §1

ryegrass, Italian [23] = assay: Test C postemergence; type: in vivo, Lolium multiflorum; details: 10 days, 0 to 100 scale (0 no effect, 100 complete control)
Method in brief: as §2

[24] = 500 g ai/ha, preemergence, 0 to 100 scale (0 no effect, 100 complete control)
[25] = Preemergence, 125 g ai/ha, 0 to 100 scale, 0 no effect, 100 complete control

In the case of `CC(C)c1ncn(-c2cc(C(=O)N3CC(C(F)(F)F)Oc4c(Cl)cccc43)ccn2)n1` (racemic) [Compound 329], the “Plant response rating, Ducksalad (Flood)” value (ducksalad) was 0, the “Plant response rating, Galium” value (galium; 500 g ai/ha, postemergence) was 100 and the “Plant response rating, Galium” value (galium; Postemergence, 125 g ai/ha) was 60. The “Ryegrass, Italian plant response rating” value (ryegrass, Italian [1]; [24]) was 100, the “Plant response rating, Ryegrass, Italian” value (ryegrass, Italian [1]; [25]) was 70 and the “Plant response rating, Horseweed” value (horseweed; 500 g ai/ha, postemergence) was 0. For the same compound, the “Plant response rating, Horseweed” value (horseweed; Postemergence, 125 g ai/ha) was 0, the “Soybean plant response rating” value (soybean [2]; [24]) was 80 and the “Plant response rating, Soybean” value (soybean [2]; [25]) was 0. For the same compound, the “Plant response rating, Pigweed, Palmer” value (pigweed, palmer [3]; 500 g ai/ha, postemergence) was 80, the “Plant response rating, Pigweed, Palmer” value (pigweed, palmer [3]; Postemergence, 125 g ai/ha) was 20 and the “Plant response rating, Blackgrass” value (blackgrass [4]; 500 g ai/ha, postemergence) was 90. The “Plant response rating, Blackgrass” value (blackgrass [4]; Postemergence, 125 g ai/ha) was 50, the “Oat, Wild plant response rating” value (oat, wild [5]; [24]) was 80 and the “Plant response rating, Oat, Wild” value (oat, wild [5]; [25]) was 30. For the same compound, the “Plant response rating, Ragweed” value (ragweed [6]; 500 g ai/ha, postemergence) was 40, the “Plant response rating, Ragweed” value (ragweed [6]; Postemergence, 125 g ai/ha) was 40 and the “Corn plant response rating” value (corn [7]; [24]) was 40. For the same compound, the “Plant response rating, Corn” value (corn [7]; [25]) was 20, the “Plant response rating, Wheat” value (wheat [8]; 500 g ai/ha, postemergence) was 50 and the “Plant response rating, Wheat” value (wheat [8]; Postemergence, 125 g ai/ha) was 20. For the same compound, the “Plant response rating, Soybean” value (soybean [9]; 500 g ai/ha, postemergence) was 100, the “Plant response rating, Soybean” value (soybean [9]; Postemergence, 125 g ai/ha) was 100 and the “Kochia plant response rating” value (kochia [10]; [24]) was 100. The “Plant response rating, Kochia” value (kochia [10]; [25]) was 40, the “Plant response rating, Oat, Wild” value (oat, wild [11]; 500 g ai/ha, postemergence) was 80 and the “Plant response rating, Oat, Wild” value (oat, wild [11]; Postemergence, 125 g ai/ha) was 30. For the same compound, the “Plant response rating, Barnyardgrass (Flood)” value (barnyardgrass [12]) was 0, the “Plant response rating, Rice (Flood)” value (rice) was 0 and the “Plant response rating, Foxtail, Giant” value (foxtail, giant [13]; 500 g ai/ha, postemergence) was 90. For the same compound, the “Plant response rating, Foxtail, Giant” value (foxtail, giant [13]; Postemergence, 125 g ai/ha) was 50, the “Ragweed plant response rating” value (ragweed [14]; [24]) was 60 and the “Plant response rating, Ragweed” value (ragweed [14]; [25]) was 0. For the same compound, the “Plant response rating, Corn” value (corn [15]; 500 g ai/ha, postemergence) was 80, the “Plant response rating, Corn” value (corn [15]; Postemergence, 125 g ai/ha) was 30 and the “Foxtail, Giant plant response rating” value (foxtail, giant [16]; [24]) was 100. The “Plant response rating, Foxtail, Giant” value (foxtail, giant [16]; [25]) was 100, the “Blackgrass plant response rating” value (blackgrass [17]; [24]) was 80 and the “Plant response rating, Blackgrass” value (blackgrass [17]; [25]) was 60. For the same compound, the “Barnyardgrass plant response rating” value (barnyardgrass [18]; [24]) was 100, the “Plant response rating, Barnyardgrass” value (barnyardgrass [18]; [25]) was 70 and the “Plant response rating, Barnyardgrass” value (barnyardgrass [19]; 500 g ai/ha, postemergence) was 60. The “Plant response rating, Barnyardgrass” value (barnyardgrass [19]; Postemergence, 125 g ai/ha) was 10, the “Plant response rating, Kochia” value (kochia [20]; 500 g ai/ha, postemergence) was 90 and the “Plant response rating, Kochia” value (kochia [20]; Postemergence, 125 g ai/ha) was 70. The “Pigweed, Palmer plant response rating” value (pigweed, palmer [21]; [24]) was 100, the “Plant response rating, Pigweed, Palmer” value (pigweed, palmer [21]; [25]) was 90 and the “Wheat plant response rating” value (wheat [22]; [24]) was 30. The “Plant response rating, Wheat” value (wheat [22]; [25]) was 10, the “Plant response rating, Sedge, Umbrella (Flood)” value (sedge, umbrella) was 0 and the “Plant response rating, Ryegrass, Italian” value (ryegrass, Italian [23]; 500 g ai/ha, postemergence) was 70. For the same compound, the “Plant response rating, Ryegrass, Italian” value (ryegrass, Italian [23]; Postemergence, 125 g ai/ha) was 50.
